Test results from patent publication US20180161366A1, “METHODS OF OBTAINING MONONUCLEAR BLOOD CELLS AND USES THEREOF” (Biokine Therapeutics Ltd., priority 2015, published 2018).
Where “and” joins values, the source holds several entries; their conditions need not be identical. Equal values may be shown once. Read-outs that look alike come from different tables or passages of the source. Non-standard residues stand in square brackets, D forms with d. *: point of attachment. Benzoyl(4-F) = O=C(c1ccc(F)cc1)*; Cit = NC(=O)NCCC[C@H](N)C(=O)O

How the values were obtained:
[1] = test system: mice; settings: single injection; cited from earlier work
[2] = target: CXCR4 receptor (Homo sapiens, UniProt P61073); settings: cited from earlier work
CXCR4 receptor, sequence (P61073 whole entry): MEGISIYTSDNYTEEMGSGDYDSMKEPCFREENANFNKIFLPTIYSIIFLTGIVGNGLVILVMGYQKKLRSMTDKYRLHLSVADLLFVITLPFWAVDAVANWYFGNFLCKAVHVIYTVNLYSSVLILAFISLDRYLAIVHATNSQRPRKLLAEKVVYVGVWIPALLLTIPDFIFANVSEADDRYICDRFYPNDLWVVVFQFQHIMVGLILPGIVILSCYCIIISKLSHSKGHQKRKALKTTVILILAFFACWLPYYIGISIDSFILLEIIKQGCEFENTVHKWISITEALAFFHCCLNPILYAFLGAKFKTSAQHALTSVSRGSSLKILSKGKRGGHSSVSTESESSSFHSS

[3] = test system: C57BL mice; experiment: Number of CD3+ T cells and B220+ B cells in spleen and peripheral lymph nodes of mice (FIG. 4); format: in vivo, mouse; settings: 5 mg/kg
Experimental: FIG. 4 are graphs presenting the number of CD3+ T cells and B220+ B cells in spleen and peripheral lymph nodes (PLN) of C57BL mice prior (denoted as control) and following administration of 5 mg/kg BL-8040, as determined by flow cytometry.
(§1) Flow cytometry—Cells (100 μl) were stained for 30 minutes in 0.1 ml FACS buffer with fluorescence antibodies directed against Human CD3, CD19, CD56, CD4, CD8, CCR7, CD83, lin-cocktail, CD11c, CD45RA, CD25, /Foxp3+, CD16, CD34, CD38 CD105 or matched isotype controls and mouse CD3, and B220 all from eBioscience San Diego, Calif. 92121 USA. Following staining the cells were washed with FACS buffer and analyzed by flow cytometry (5 μl per sample) using the FACS Caliber Flow Cytometer (BD Biosciences). Data was analyzed using software from CellQuest (version 3.3; BD Biosciences). Cells were first gated according to the forward scatter and side scatter parameters to exclude dead cells and the number and percent of each cell population (e.g. HSPCs, T cells, B cells, NK cells, NKT cells and DCs) was analyzed.

[4] = test system: myeloid leukemia, hematopoietic tumors and non-small cell lung cancer; settings: cited from earlier work
[5] = test system: C57BL/6 mice; experiment: BL8040-induced mobilization of T cell subsets in naive mice or mice bearing pancreatic or melanoma cancer; format: in vivo; settings: 400 μg/mouse SC
Experimental: Six-to 8-week-old female or male C57BL/6 were purchased from Harlan laboratories. Mice were maintained and all animal experiments were conducted according to the protocols approved by the institutional animal care of the Hebrew university.
Female C57BL/6 mice were inoculated subcutaneously at the right flank with 1× 10^6 B16F10 cells in 0.1 mL PBS. When tumors reached 90 to 150 mm^2 in size (after two weeks), mice were treated with BL-8040, according to the below regimen.
1.5×10^6 Livmet cells/10 μl PBS and 10 μl Matrigel (BD Biosciences) were injected into the pancreas of male C57BL/6 mice. Mice were treated with BL8040, 3 weeks after the injection.
BL8040 (400 μg/mouse dissolved in phosphate-buffered saline) was administered once by subcutaneous injection and 2 h later the blood was collected into tube with heparin.
Fluorescent-activated cell sorting analysis was performed on whole blood (day 0) and expanded cells (day 10).
Whole blood was treated with red blood cell lysis solution (0 155 M NH4Cl, 0.01 M KHCO3, 0.01 mmol/l EDTA, pH 7.4) in order to lyse the erythrocytes. Isolated cells were washed with PBS, re-suspended with 0.1 ml of PBS and stained with fluorescent antibodies directed against specific surface markers.
Cells were incubated with mobs: CD8-PE, CD4-APC, CD3-FITC, CD25-PE-Cy7, CD69-PerCP, CD44-PE-Cy7, CD137-PE-Cy7, CD279-FITC, CD62L-FITC and CD223-FITC (eBioscience).

[6] = test system: healthy subjects; format: in vivo; settings: for Mean CD34+ count (HSPC): four hours post first administration, baseline 5.8/μL, placebo 8; for Mean count of CD34+ HSPC: four hours post second administration, placebo 9
Experimental: (§2) White blood cell count—Blood count assays were performed using Beckman-Coulter analyzers (GENS,750,000).
as §1
The first part of the study was a randomized, double-blind, placebo-controlled dose escalation. […] After obtaining informed consent, BL-8040 was administered subcutaneously (SC) once daily on 2 consecutive days at a dose of 0.5, 0.75 or 1 mg/kg.

[7] = test system: healthy subjects; experiment: Open label single injection of BL-8040 followed by leukapheresis: composition of collected graft and kinetics of WBC, ImDC and T cells; format: in vivo, human
Experimental: (§3) FIG. 1 is a graph illustrating kinetic analysis of the effect of BL-8040 administration on mobilization of white blood cells (WBC) to the peripheral blood. The figure presents a time course of total WBC in the peripheral blood of subjects in response to a single SC administration of 1 mg/kg BL-8040 as determined by flow cytometry.
as §3, with “FIG. 2” for “FIG. 1”, “of immature dendritic” for “of white blood”, “cells (ImDC)” for “cells (WBC)”, “of ImDC” for “of total WBC”
as §3, with “FIG. 3” for “FIG. 1”, “of CD3+ T” for “of white blood”, “cells” for “cells (WBC)”, “of CD3+ T” for “of total WBC”
Leukapheresis—The leukapheresis procedure was commenced approximately 4 hours (±1 hour) post BL-8040 injection. Eighteen (18) Liter apheresis was collected at a Bone Marrow Transplant unit using the Spectra Optia® Apheresis System.
as §2, §1
The second part of the study was an open label test. 8 healthy subjects received a single injection of BL-8040 (1 mg/kg) and 3-4 hours later were subjected to a standard leukapheresis (18 L) procedure. The composition of the collected graft was tested for the number of WBCs per kg, number of CD34+ HSPC per kg and number and type of T cells, B cells, NK cells and dendritic cells (DC) per kg.

[8] = peripheral blood, 0.5-1 mg/kg SC

4F-benzoyl-Arg-Arg-Nal-Cys-Tyr-Cit-Lys-DLys-Pro-Tyr-Arg-Cit-Cys-Arg-NH2 ({Benzoyl(4-F)}-RR[Nal]CY[Cit]K[dK]PYR[Cit]CR-NH2; not fully specified; printed as 4F-benzoyl-Arg-Arg-Nal-Cys-Tyr-Cit-Lys-DLys-Pro-Tyr-Arg-Cit-Cys-Arg-NH2; also: cyclised, bridge not given here) [BL-8040]
mobilization of long term repopulating stem cells [1]: mobilized long term repopulating stem cells sufficient for transplantation | binding to the CXCR4 receptor [2]: high affinity and long receptor occupancy | source of mobilized T cells (spleen and peripheral lymph nodes counts) [3]: T cells are mobilized from the lymph node into the blood | toxicity against tumors [4]: toxic against several tumors | CD69+ CD25+ activated T cells in collected cells ([5]; cancerous mice vs naive mice, FIG. 6B): more CD69+ CD25+ activated T cells | mobilization of CD4 and CD8 cells ([5]; tumor bearing mice vs non injected or naive mice, blood 2 h later, FIG. 6A): increased mobilization of both CD4 and CD8 cells | mean WBC count ([6]; 4 hr post BL-8040 administration, baseline 6.3): 2.97e+10 L⁻¹ | Mean CD34+ count (HSPC) ([6]; 0.5 mg/kg): 37 cells/μL | Mean CD34+ count (HSPC) ([6]; 0.75 mg/kg): 31 cells/μL | Mean CD34+ count (HSPC) ([6]; 1 mg/kg): 35 cells/μL | Mean count of CD34+ HSPC ([6]; 0.5 mg/kg): 38 cells/μL | Mean count of CD34+ HSPC ([6]; 0.75 mg/kg): 46 cells/μL | Mean count of CD34+ HSPC ([6]; 1 mg/kg): 58 cells/μL | safety and tolerability ([6]; healthy subjects, SC once daily on 2 consecutive days, all doses tested (0.5-1 mg/kg)): safe and well tolerated | primary treatment related adverse effects ([6]; healthy subjects, SC, 0.5-1 mg/kg): mild to moderate transient injection site and systemic reactions | mobilization of MSC and HPC colony forming cells [6, 8]: rapid mobilization | mobilization of T, B and NK cells [6, 8]: substantial mobilization | duration of CXCR4 receptor occupancy and pharmacodynamic effect ([6]; post dosing): ≥ 24 h | B cells (CD19+), % of graft ([7]; 3.5-8 hours following 1 mg/kg): 13.1% | B cells (CD19+), median ([7]; 3.5-8 hours following 1 mg/kg): 2.03 × 10^8/Kg and 2.03 (0.32-2.6) × 10^8/Kg | Central memory CD4 T cells (CD3+/CD4+ CD45RA−/CCR7+), % of CD4+ cells ([7]; 3.5-8 hours following 1 mg/kg): 37.99% | Central memory CD8 T cells (CD3+/CD8+ CD45RA−/CCR7+), % of CD8 cells ([7]; 3.5-8 hours following 1 mg/kg): 33.1% | Cytotoxic T cells (CD3+CD8+), % of graft ([7]; 3.5-8 hours following 1 mg/kg): 22.5% | Cytotoxic T cells (CD3+CD8+), median ([7]; 3.5-8 hours following 1 mg/kg): 2.89 × 10^8/Kg and 2.89 (1.7-4.9) × 10^8/Kg | Effector CD4 T cells (CD3+/CD4+ CD45RA+/CCR7−), % of CD4+ cells ([7]; 3.5-8 hours following 1 mg/kg): 6.24% | Effector CD8 T cells (CD3+/CD8+ CD45RA+/CCR7−), % of CD8 cells ([7]; 3.5-8 hours following 1 mg/kg): 1.09% | Effector memory CD4 T cells (CD3+/CD4+ CD45RA−/CCR7−), % of CD4+ cells ([7]; 3.5-8 hours following 1 mg/kg): 21.19% | Effector memory CD8 T cells (CD3+/CD8+ CD45RA−/CCR7−), % of CD8 cells ([7]; 3.5-8 hours following 1 mg/kg): 1.94% | HSPC (CD34+), % of graft ([7]; 3.5-8 hours following 1 mg/kg): 0.78% | HSPC (CD34+), median ([7]; 3.5-8 hours following 1 mg/kg): 11.89 × 10^6/Kg and 11.89 (5.1-15.0) × 10^6/Kg | Immature DCs (lin-CD11c+CD83−), % of graft ([7]; 3.5-8 hours following 1 mg/kg): 0.95% | Immature DCs (lin-CD11c+CD83−), median ([7]; 3.5-8 hours following 1 mg/kg): 1.16e+07 kg⁻¹ | NK cells (CD3−CD56+), % of graft ([7]; 3.5-8 hours following 1 mg/kg): 4.76% | NK cells (CD3−CD56+), median ([7]; 3.5-8 hours following 1 mg/kg): 0.53 × 10^8/Kg and 0.53 (0.15-1.55) × 10^8/Kg | NKT cells (CD3+CD56+), % of graft ([7]; 3.5-8 hours following 1 mg/kg): 1.2% | NKT cells (CD3+CD56+), median ([7]; 3.5-8 hours following 1 mg/kg): 9.8e+06 kg⁻¹ | Naïve CD4 T cells (CD3+/CD4+ CD45RA+/CCR7+), % of CD4+ cells ([7]; 3.5-8 hours following 1 mg/kg): 34.61% | Naïve CD8 T cells (CD3+/CD8+ CD45RA+/CCR7+), % of CD8 cells ([7]; 3.5-8 hours following 1 mg/kg): 63.89% | Regulatory T cells (CD4+CD25+Foxp3+), % of graft ([7]; 3.5-8 hours following 1 mg/kg): 1.28% | Regulatory T cells (CD4+CD25+Foxp3+), median ([7]; 3.5-8 hours following 1 mg/kg): 1.61e+07 kg⁻¹ | T cells (CD3+), % of graft ([7]; 3.5-8 hours following 1 mg/kg): 48.08% | T cells (CD3+), median ([7]; 3.5-8 hours following 1 mg/kg): 7.32 × 10^8/Kg and 7.32 (4.0-8.5) × 10^8/Kg | T helper cells (CD3+CD4+), % of graft ([7]; 3.5-8 hours following 1 mg/kg): 21.7% | T helper cells (CD3+CD4+), median ([7]; 3.5-8 hours following 1 mg/kg): 3.3 × 10^8/Kg and 3.3 (1.44-3.9) × 10^8/Kg | number of T cells in the periphery at 24 hours ([7]; 24 hours following administration, FIG. 3): remains high | time at which number of T cells in the periphery started to decline ([7]; following administration of BL-8040): 48 h | Fold Difference (BL-8040/AMD3100), B cells CD19 ([7]; ratio of medians): 2.00 | Fold Difference (BL-8040/AMD3100), Cytotoxic T cells CD3+CD8+ ([7]; ratio of medians): 2.22 | Fold Difference (BL-8040/AMD3100), HSPC CD34+ ([7]; ratio of medians): 4.10 | Fold Difference (BL-8040/AMD3100), NK cells CD3−CD56+ ([7]; ratio of medians): 1.77 | Fold Difference (BL-8040/AMD3100), T cells CD3+ ([7]; ratio of medians): 1.59 | Fold Difference (BL-8040/AMD3100), T helper cells CD3+CD4+ ([7]; ratio of medians): 1.03 | Fold Difference (BL-8040/G-CSF), Cytotoxic T cells CD3+CD8+ ([7]; ratio of medians): 7.23 | Fold Difference (BL-8040/G-CSF), HSPC CD34+ ([7]; ratio of medians): 2.83 | Fold Difference (BL-8040/G-CSF), NK cells CD3−CD56+ ([7]; ratio of medians): 2.65 | Fold Difference (BL-8040/G-CSF), T cells CD3+ ([7]; ratio of medians): 5.63 | Fold Difference (BL-8040/G-CSF), T helper cells CD3+CD4+ ([7]; ratio of medians): 3 | increase in the total number of WBC ([7]; single 1 mg/kg SC, FIG. 1): 5-7 fold | time within which mobilization of DCs and T cells occurs ([7]; single administration, FIGS. 2-3): 3 to 4 h
